Columns and labels:
several strains = conditions: concentrations below 1 mM
From the text: [39, 40] […] To control for the impact of copper alone, the cultures of 5 bacterial strains were subjected to a serial dilution of CuCl2. […] [41] To control for the impact of limited Cu, several strains were also challenged with a serial dilution of BCS.

E. coli = type: cell-based; conditions: at 52 μM DB4-51
From the text: Further evidence for the influence of bioavailable copper on the IC50 of DB4-51 was obtained by using a checkerboard assay. […] Serial dilutions of DB4-51 in LB were arrayed against dilutions of chelator (BCS and EDTA). The antagonism exists between our prochelator, DB4-51, and the strong, extracellular chelators BCS and EDTA. […] However, at lower concentrations, EDTA works antagonistically with DB4-51 by restoring bacterial growth. This trend further underscores the influence that copper and potentially other metals have on the growth inhibitory activity of DB4-51.

SMILES: Cc1cc(-c2ccc(S(=O)(=O)O)cc2)c2ccc3c(-c4ccc(S(=O)(=O)O)cc4)cc(C)nc3c2n1 [BCS, bathocuproine disulfonate]
- effect on bacterial growth (several strains): did not inhibit bacterial growth
- concentration that restored E. coli growth (E. coli): ≥ 125 µM
